Laboratory results from PubChem BioAssay AID1963848 (Molecular Pharmacology Branch, DTP, NCI, 2024).

System: 379773-124-R-J2-PDC spheroid viability
Experiment: Anticancer human tumor 379773-124-R-J2-PDC patient-derived endometrial carcinoma cell line growth inhibition [POLQ]
Conditions: spheroids with HUVEC and MSC; for IC50: curve of first compound; for viability, T/C: stronger effect = lower value
Description: Multicellular complex tumor spheroid response to Polymerase (POL) inhibitors (novobiocin, ART-558, RP6685) in combination with a variety of drugs and investigational agents in selected tumor cell lines
The POL inhibitors (novobiocin, ART-558, and RP6685) were evaluated both individually and in combination with standard of care and investigational anticancer small molecules within a complex spheroid model of solid tumors. . Complex spheroids include a stromal component modeled by human endothelial cells (HUVEC) and fibroblasts modeled by human mesenchymal stem cells (MSCs). The concentration ranges selected for each drug and investigational agent were based upon clinically achievable concentrations if the clinical Cmax of the agent was known.
Compounds. The drugs and investigational agents: novobiocin (NSC847541), ART-558 (NSC835418), RP-6685 (NSC848927), peposertib (NSC802822), ceralasertib (NSC780249), elimusertib (NSC800525), camonsertib (NSC841442), AZD-1390 (NSC803789), olaparib (NSC753686), talazoparib (NSC767125), rucaparib (NSC756644), sotorasib (NSC818433), MRTX-1133 (NSC836407), SN-38 (NSC673596), topotecan (NSC609699), epotoside (NSC141540), doxorubicin (NSC123127), gemcitabine (NSC613327), 5-fluorouracil (NSC19893), paclitaxel (NSC125973), vemurafenib (NSC761431), MSA-2 (NSC828583), SN-011 (NSC837082), adavosertib (NSC754352), prexasertib (NSC758257), carboplatin (NSC241240) and oxaliplatin (NSC266046), were obtained from the National Cancer Institute (NCI) Developmental Therapeutics Program Chemical Repository (21). The FDA-approved anticancer drug set is available from the Developmental Therapeutics Program at https://dtp.cancer.gov/organization/dscb/obtaining/. […] The stock solutions were prepared in dimethyl sulfoxide (DMSO, Sigma-Aldrich, St. Louis, MO, cat. D2650), except for the platinum compounds which were prepared in saline (Quality Biological, Gaithersburg, MD, cat. 114-055-101), at 800-fold the tested concentration and stored at -70 degrees C prior to their use. All drugs and investigational agents were tested over a range starting from a high concentration at or near the clinical Cmax and decreasing in half-log increments. If the clinical Cmax for an agent had not been determined, the highest concentration tested was 10 microM, except for SN-38, which was tested at a high concentration of 1 microM.
Cell Culture. All cells were maintained in an incubator at 37 degrees C and 5% CO2 with 95% humidity. The PDC lines were cultured according to standard operating procedures established by the NCI PDMR (https://pdmr.cancer.gov). Table 3 of the manuscript, lists the cell lines along with the number of the three cell types plated to form the mct-spheroids and media for tumor cell growth. After thawing, all PDC lines, except 997537-175-T-J1-PDC and 415267-285-R-J2-PDC, were cultured in Matrigel-coated flasks prepared with a working solution of 1X Ham's F-12 nutrient mix, without supplementation (Thermo Fisher Scientific, cat. 11765054), 100 U/mL penicillin-streptomycin (Thermo Fisher Scientific, cat. 15140122), and 2.5% Matrigel (Corning Inc., Corning, NY, cat. 354248) for the first three passages. The two PDC lines 997537-175-T-J1-PDC and 415267-285-R-J2-PDC were cultured on uncoated flasks. The 857933-349-R-J2-PDC line was cultured in 6C/Colon 1B media containing advanced DMEM/F-12 (Thermo Fisher Scientific, cat. 12634028), 10 mM HEPES (Thermo Fisher Scientific, cat. 15630080), 1X GlutaMAX supplement (Thermo Fisher Scientific, cat. 35050061), 0.1 mg/mL primocin (InvivoGen, San Diego, CA, cat. ant-pm-2), 10% defined fetal bovine serum, heat inactivated (HyClone Laboratories Inc., Logan, UT, cat. SH30070.03HI), 50% L-WRN conditioned media (ATCC, cat. CRL-3276), 1.25 mM N-Acetyl-L-cysteine (Sigma-Aldrich, cat. A9165), 10 mM nicotinamide (Sigma-Aldrich, cat. N0636), 1X B-27 supplement (Thermo Fisher Scientific, cat. 17504044), 1X N-2 supplement (Thermo Fisher Scientific, cat. […]

[1] = second compound 0.0316 µM, first compound 0.0316 µM
[2] = second compound 0.0316 µM, first compound 0.1 µM
[3] = second compound 0.0316 µM, first compound 0.316 µM
[4] = second compound 0.0316 µM, first compound 1 µM
[5] = second compound 0.0316 µM, first compound 3.16 µM
[6] = second compound 0.0316 µM, first compound 10 µM
[7] = second compound 0.1 µM, first compound 0.0316 µM
[8] = second compound 0.1 µM, first compound 0.1 µM
[9] = second compound 0.1 µM, first compound 0.316 µM
[10] = second compound 0.1 µM, first compound 1 µM
[11] = second compound 0.1 µM, first compound 3.16 µM
[12] = second compound 0.1 µM, first compound 10 µM
[13] = second compound 0.316 µM, first compound 0.0316 µM
[14] = second compound 0.316 µM, first compound 0.1 µM
[15] = second compound 0.316 µM, first compound 0.316 µM
[16] = second compound 0.316 µM, first compound 1 µM
[17] = second compound 0.316 µM, first compound 3.16 µM
[18] = second compound 0.316 µM, first compound 10 µM
[19] = second compound 1 µM, first compound 0.0316 µM
[20] = second compound 1 µM, first compound 0.1 µM
[21] = second compound 1 µM, first compound 0.316 µM
[22] = second compound 1 µM, first compound 1 µM
[23] = second compound 1 µM, first compound 3.16 µM
[24] = second compound 1 µM, first compound 10 µM
[25] = second compound 3.16 µM, first compound 0.0316 µM
[26] = second compound 3.16 µM, first compound 0.1 µM
[27] = second compound 3.16 µM, first compound 0.316 µM
[28] = second compound 3.16 µM, first compound 1 µM
[29] = second compound 3.16 µM, first compound 3.16 µM
[30] = second compound 3.16 µM, first compound 10 µM
[31] = second compound 10 µM, first compound 0.0316 µM
[32] = second compound 10 µM, first compound 0.1 µM
[33] = second compound 10 µM, first compound 0.316 µM
[34] = second compound 10 µM, first compound 1 µM
[35] = second compound 10 µM, first compound 3.16 µM
[36] = second compound 10 µM, first compound 10 µM
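Further: spheroids exposed to drugs for seven days before readout.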
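Wherever viability, T/C is given: percent viability relative to DMSO vehicle control taken as 100%.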

**Q.** Which results are given for `O=C(c1cc(Cc2n[nH]c(=O)c3ccccc23)ccc1F)N1CCN(C(=O)C2CC2)CC1` + COC1C(OC(N)=O)C(O)C(Oc2ccc3c(O)c(NC(=O)c4ccc(O)c(CC=C(C)C)c4)c(=O)oc3c2C)OC1(C)C?
**A.** IC50 (second compound 0.0316 µM): 6.65 µM; IC50 (second compound 0.1 µM): 9.68 µM; IC50 (second compound 0.316 µM): 8.28 µM; IC50 (second compound 1 µM): 7.63 µM; IC50 (second compound 3.16 µM): 9.21 µM; IC50 (second compound 10 µM): 9.44 µM; viability, T/C [1]: 87.3%; viability, T/C [2]: 80.7%; viability, T/C [3]: 88.5%; viability, T/C [4]: 82.4%; viability, T/C [5]: 71.2%; viability, T/C [6]: 38.2%; viability, T/C [7]: 92.5%; viability, T/C [8]: 76.6%; viability, T/C [9]: 86.9%; viability, T/C [10]: 81.4%; viability, T/C [11]: 88.1%; viability, T/C [12]: 48.9%; viability, T/C [13]: 82.4%; viability, T/C [14]: 91.8%; viability, T/C [15]: 88.1%; viability, T/C [16]: 85.8%; viability, T/C [17]: 74.8%; viability, T/C [18]: 44.7%; viability, T/C [19]: 85.1%; viability, T/C [20]: 80%; viability, T/C [21]: 78.3%; viability, T/C [22]: 84.4%; viability, T/C [23]: 72.2%; viability, T/C [24]: 42.8%; viability, T/C [25]: 80.2%; viability, T/C [26]: 82.8%; viability, T/C [27]: 76.5%; viability, T/C [28]: 73.2%; viability, T/C [29]: 73.3%; viability, T/C [30]: 48%; viability, T/C [31]: 70.5%; viability, T/C [32]: 78.8%; viability, T/C [33]: 74.1%; viability, T/C [34]: 72.7%; viability, T/C [35]: 73.5%; viability, T/C [36]: 48.8%

**Q.** Which IC50 (second compound 0.0316 µM) does the source give for `O=c1[nH]cc(F)c(=O)[nH]1` + COC1C(OC(N)=O)C(O)C(Oc2ccc3c(O)c(NC(=O)c4ccc(O)c(CC=C(C)C)c4)c(=O)oc3c2C)OC1(C)C here?
**A.** > 10 µM

**Q.** And the IC50 (second compound 0.1 µM)?
**A.** > 10 µM

**Q.** What about the IC50 (second compound 0.316 µM) of the same molecule?
**A.** > 10 µM

**Q.** What about the IC50 (second compound 1 µM) of the same molecule?
**A.** > 10 µM

**Q.** What about the IC50 (second compound 3.16 µM) of the same molecule?
**A.** > 10 µM

**Q.** And the IC50 (second compound 10 µM)?
**A.** > 10 µM

**Q.** What about the viability, T/C [1] of the same molecule?
**A.** 85.1%

**Q.** What about the viability, T/C [2] of the same molecule?
**A.** 83.2%

**Q.** What about the viability, T/C [3] of the same molecule?
**A.** 85.4%

**Q.** What about the viability, T/C [4] of the same molecule?
**A.** 80.3%

**Q.** And the viability, T/C [5]?
**A.** 69.1%

**Q.** What about the viability, T/C [6] of the same molecule?
**A.** 51.8%

**Q.** And the viability, T/C [7]?
**A.** 90.7%

**Q.** And the viability, T/C [8]?
**A.** 88.8%

**Q.** And the viability, T/C [9]?
**A.** 81.8%

**Q.** And the viability, T/C [10]?
**A.** 86.2%

**Q.** And the viability, T/C [11]?
**A.** 68.6%

**Q.** What about the viability, T/C [12] of the same molecule?
**A.** 61%

**Q.** What about the viability, T/C [13] of the same molecule?
**A.** 92.7%

**Q.** What about the viability, T/C [14] of the same molecule?
**A.** 90.4%

**Q.** What about the viability, T/C [15] of the same molecule?
**A.** 80.9%

**Q.** And the viability, T/C [16]?
**A.** 78%

**Q.** And the viability, T/C [17]?
**A.** 75.8%

**Q.** What about the viability, T/C [18] of the same molecule?
**A.** 56.6%

**Q.** What about the viability, T/C [19] of the same molecule?
**A.** 82.6%

**Q.** And the viability, T/C [20]?
**A.** 77.2%

**Q.** And the viability, T/C [21]?
**A.** 88.4%

**Q.** And the viability, T/C [22]?
**A.** 74.6%

**Q.** What about the viability, T/C [23] of the same molecule?
**A.** 71.1%

**Q.** What about the viability, T/C [24] of the same molecule?
**A.** 60.3%

**Q.** What about the viability, T/C [25] of the same molecule?
**A.** 78.2%

**Q.** What about the viability, T/C [26] of the same molecule?
**A.** 82.6%

**Q.** What about the viability, T/C [27] of the same molecule?
**A.** 90.4%

**Q.** And the viability, T/C [28]?
**A.** 70.8%

**Q.** What about the viability, T/C [29] of the same molecule?
**A.** 76.6%

**Q.** And the viability, T/C [30]?
**A.** 57.5%

**Q.** And the viability, T/C [31]?
**A.** 75.6%

**Q.** What about the viability, T/C [32] of the same molecule?
**A.** 78.5%

**Q.** What about the viability, T/C [33] of the same molecule?
**A.** 76.1%

**Q.** And the viability, T/C [34]?
**A.** 71%

**Q.** And the viability, T/C [35]?
**A.** 70.6%

**Q.** And the viability, T/C [36]?
**A.** 55.3%
